Laboratory results as given in patent publication US6881741B2 (ViroChem Pharma Inc., priority 2001, dated 2005).

What follows are compounds tested against recombinant HCV NS5B (HCV RNA-dependent RNA polymerase) (Hepatitis C virus genotype 1b, UniProt P26663) (assay: biochemical). Conditions: related polymerase activity (Example 27 list); read-out: IC50.
recombinant HCV NS5B (HCV RNA-dependent RNA polymerase), sequence (P26663 2420-3010 limits assumed): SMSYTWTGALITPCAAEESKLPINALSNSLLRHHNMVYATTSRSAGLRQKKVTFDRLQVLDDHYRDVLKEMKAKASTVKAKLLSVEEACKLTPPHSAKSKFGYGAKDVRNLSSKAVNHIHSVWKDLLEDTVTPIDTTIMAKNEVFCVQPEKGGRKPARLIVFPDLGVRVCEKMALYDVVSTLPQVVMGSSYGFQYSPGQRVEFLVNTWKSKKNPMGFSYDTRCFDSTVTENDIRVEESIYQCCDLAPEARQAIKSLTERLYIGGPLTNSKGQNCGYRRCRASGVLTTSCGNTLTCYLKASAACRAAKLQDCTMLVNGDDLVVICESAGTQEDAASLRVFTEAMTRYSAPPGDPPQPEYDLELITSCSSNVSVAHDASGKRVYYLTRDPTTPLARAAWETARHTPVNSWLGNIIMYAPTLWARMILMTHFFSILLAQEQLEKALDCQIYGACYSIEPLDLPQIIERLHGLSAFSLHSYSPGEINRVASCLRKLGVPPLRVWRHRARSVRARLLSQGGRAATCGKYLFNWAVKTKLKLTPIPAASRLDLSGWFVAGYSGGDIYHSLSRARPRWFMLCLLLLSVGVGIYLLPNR
`Cc1cc(C)c(C(=O)N(c2cc(-c3ccccc3)sc2C(=O)O)C(C)C)c(C)c1` [Compound 324, 3-[ISOPROPYL-(2,4,6-TRIMETHYL- BENZOYL)-AMINO]-5-PHENYL- THIOPHENE-2-CARBOXYLIC ACID] gave an IC50 of 5 to 20 µM. Compound `CCCN(C(=O)c1ccc(C)cc1)c1cc(-c2cccc(CCC(=O)O)c2)sc1C(=O)O` [Compound 325, 5-[3-(2-CARBOXY-ETHYL)-PHENYL]-3-[(4- METHYL-BENZOYL)-PROPYL-AMINO]- THIOPHENE-2-CARBOXYLIC ACID] has an IC50 of 5 to 20 µM. `CC(C)N(C(=O)c1ccc(C(F)(F)F)cc1F)c1cc(-c2ccccc2)sc1C(=O)O` [Compound 326, 3-[(2-FLUORO-4-TRIFLUOROMETHYL- BENZOYL)-ISOPROPYL-AMINO]-5- PHENYL-THIOPHENE-2-CARBOXYLIC ACID] was tested, and the IC50 was < 5 µM. With `CC(C)(C)N(C(=O)c1ccc(Cl)cc1Cl)c1cc(-c2ccccc2)sc1C(=O)O` [Compound 327, 3-[#TERT!-BUTYL-(2,4-DICHLORO- BENZOYL)-AMINO]-5-PHENYL- THIOPHENE-2-CARBOXYLIC ACID] the IC50 was < 5 µM. For `CC(C)N(C(=O)c1ccc(Cl)cc1N)c1cc(-c2ccccc2)sc1C(=O)O` [Compound 328, 3-[(2-AMINO-4-CHLORO-BENZOYL)- ISOPROPYL-AMINO]-5-PHENYL- THIOPHENE-2-CARBOXYLIC ACID], the IC50 was < 5 µM. For `CC(C)N(C(=O)c1ccc(Cl)cc1[N+](=O)[O-])c1cc(-c2ccccc2)sc1C(=O)O` [Compound 329, 3-[(4-CHLORO-2-NITRO-BENZOYL)- ISOPROPYL-AMINO]-5-PHENYL- THIOPHENE-2-CARBOXYLIC ACID], the IC50 was < 5 µM. For `Cc1ccc(C(=O)N(Cc2cccc(C(F)(F)F)c2)c2cc(-c3ccccc3)sc2C(=O)O)cc1` [Compound 330, 3-[(4-METHYL-BENZOYL)-(3- TRIFLUOROMETHYL-BENZYL)-AMINO]-5- PHENYL-THIOPHENE-2-CARBOXYLIC ACID], the IC50 was < 5 µM. `Cc1ccc(C(=O)N(c2cc(-c3ccccc3)sc2C(=O)O)C(C)C)cc1F` [Compound 331, 3-[(3-FLUORO-4-METHYL-BENZOYL)- ISOPROPYL-AMINO]-5-PHENYL- THIOPHENE-2-CARBOXYLIC ACID] was tested, and the IC50 was < 5 µM. In the case of `Cc1ccc(S(=O)(=O)Nc2cc(-c3ccc(C(=O)O)cc3)sc2C(=O)O)c(C)c1` [Compound 332, 5-(4-CARBOXY-PHENYL)-3-(2,4-DIMETHYL- BENZENESULFONYLAMINO)- THIOPHENE-2- CARBOXYLIC ACID], the IC50 is reported as < 5 µM. With `O=C(O)c1sc(-c2ccccc2)cc1N(C(=O)c1ccc(Cl)cc1Cl)C1CC1` [Compound 333, 3-[CYCLOPROPYL-(2,4-DICHLORO- BENZOYL)-AMINO]-5-PHENYL- THIOPHENE-2-CARBOXYLIC ACID] the IC50 was < 5 µM. For `Cc1ccc(C(=O)N(Cc2cccc(C(C)(C)C)c2)c2cc(-c3ccccc3)sc2C(=O)O)cc1` [Compound 334, 3-[(3-TERT-BUTYL-BENZYL)-(4-METHYL- BENZOYL)-AMINO]-5-PHENYL- THIOPHENE-2-CARBOXYLIC ACID], the IC50 was < 5 µM. For `Cc1ccc(C(=O)N(Cc2cccc(Cl)c2)c2cc(-c3ccccc3)sc2C(=O)O)cc1` [Compound 335, 3-[(3-CHLORO-BENZYL)-(4-METHYL- BENZOYL)-AMINO]-5-PHENYL- THIOPHENE-2-CARBOXYLIC ACID], the IC50 was < 5 µM. For `Cc1ccc(C(=O)N(Cc2ccc(F)cc2F)c2cc(-c3ccccc3)sc2C(=O)O)cc1` [Compound 336, 3-[(2,4-DIFLUORO-BENZYL)-(4-METHYL- BENZOYL)-AMINO]-5-PHENYL- THIOPHENE-2-CARBOXYLIC ACID], the IC50 was < 5 µM. `CC(C)N(C(=O)c1cc(F)c(Cl)cc1F)c1cc(-c2ccccc2)sc1C(=O)O` [Compound 337, 3-[(4-CHLORO-2,5-DIFLUORO-BENZOYL)- ISOPROPYL-AMINO]-5-PHENYL- THIOPHENE-2-CARBOXYLIC ACID] was tested, and the IC50 was 5 to 20 µM. With `C=C(C)Cc1cc(N(C(=O)c2ccc(Cl)cc2Cl)C(C)C)c(C(=O)O)s1` [Compound 338, 3-[(2,4-DICHLORO-BENZOYL)- ISOPROPYL-AMINO]-5-(2-METHYL- ALLYL)-THIOPHENE- 2-CARBOXYLIC ACID] the IC50 was < 5 µM. `C=CCN(C(=O)Cc1ccc(Cl)cc1)c1cc(-c2ccccc2)sc1C(=O)O` [Compound 339, 3-(ALLYL-[2-(4-CHLORO-PHENYL)- ACETYL]-AMINO)-5-PHENYL-THIOPHENE- 2-CARBOXYLIC ACID] gave an IC50 of 5 to 20 µM. With `Cc1ccc(C(=O)N(Cc2ccccc2)c2cc(-c3ccccc3)sc2C(=O)O)cc1` [Compound 340, 3-[BENZYL-(4-METHYL-BENZOYL)- AMINO]-5-PHENYL-THIOPHENE-2- CARBOXYLIC ACID] the IC50 was < 5 µM. For `Cc1ccc(C(=O)N(Cc2ccc(Cl)cc2)c2cc(-c3ccccc3)sc2C(=O)O)cc1` [Compound 341, 3-[(4-CHLORO-BENZYL)-(4-METHYL- BENZOYL)-AMINO]-5-PHENYL- THIOPHENE-2-CARBOXYLIC ACID], the IC50 was < 5 µM. For `Cc1ccc(C(=O)N(Cc2ccc([N+](=O)[O-])cc2)c2cc(-c3ccccc3)sc2C(=O)O)cc1` [Compound 342, 3-[(4-METHYL-BENZOYL)-(4-NITRO- BENZYL)-AMINO]-5-PHENYL-THIOPHENE- 2-CARBOXYLIC ACID], the IC50 was < 5 µM. `Cc1ccc(C(=O)N(Cc2ccccc2C)c2cc(-c3ccccc3)sc2C(=O)O)cc1` [Compound 343, 3-[(4-METHYL-BENZOYL)-(2-METHYL- BENZYL)-AMINO]-5-PHENYL-THIOPHENE- 2-CARBOXYLIC ACID] was tested, and the IC50 was < 5 µM. In the case of `COc1cccc(CN(C(=O)c2ccc(C)cc2)c2cc(-c3ccccc3)sc2C(=O)O)c1` [Compound 344, 3-[(3-METHOXY-BENZYL)-(4-METHYL- BENZOYL)-AMINO]-5-PHENYL- THIOPHENE-2-CARBOXYLIC ACID], the IC50 is reported as < 5 µM. For `Cc1ccc(C(=O)N(Cc2ccccc2Cl)c2cc(-c3ccccc3)sc2C(=O)O)cc1` [Compound 345, 3-[(2-CHLORO-BENZYL)-(4-METHYL- BENZOYL)-AMINO]-5-PHENYL- THIOPHENE-2-CARBOXYLIC ACID], the IC50 was < 5 µM. For `CC(C)Cc1cc(N(C(=O)c2ccc(Cl)cc2Cl)C(C)C)c(C(=O)O)s1` [Compound 346, 3-[(2,4-DICHLORO-BENZOYL)- ISOPROPYL-AMINO]-5-ISOBUTYL- THIOPHENE-2-CARBOXYLIC ACID], the IC50 was < 5 µM. For `C=CCN(C(=O)Cc1ccc2ccccc2c1)c1cc(-c2ccccc2)sc1C(=O)O` [Compound 347, 3-[ALLYL-(2-NAPHTHALEN-2-YL-ACETYL)- AMINO]-5-PHENYL-THIOPHENE-2- CARBOXYLIC ACID], the IC50 was > 20 µM. `C=CCN(C(=O)Cc1ccc(Cl)cc1Cl)c1cc(-c2ccccc2)sc1C(=O)O` [Compound 348, 3-{ALLYL-[2-(2,4-DICHLORO-PHENYL)- ACETYL]-AMINO}-5-PHENYL-THIOPHENE- 2-CARBOXYLIC ACID] showed an IC50 of 5 to 20 µM. Work on `C=CCN(C(=O)Cc1ccc(F)cc1Cl)c1cc(-c2ccccc2)sc1C(=O)O` [Compound 349, 3-{ALLYL-[2-(2-CHLORO-4-FLUORO- PHENYL)-ACETYL]-AMINO}-5-PHENYL- THIOPHENE-2-CARBOXYLIC ACID] yielded an IC50 of 5 to 20 µM. `C=CCN(C(=O)Cc1ccc(Cl)c(Cl)c1)c1cc(-c2ccccc2)sc1C(=O)O` [Compound 350, 3-{ALLYL-[2-(3,4-DICHLORO-PHENYL)- ACETYL]-AMINO}-5-PHENYL-THIOPHENE- 2-CARBOXYLIC ACID] showed an IC50 of 5 to 20 µM. With `C=CCN(C(=O)Cc1ccc(F)cc1F)c1cc(-c2ccccc2)sc1C(=O)O` [Compound 351, 3-{ALLYL-[2-(2,4-DIFLUORO-PHENYL)- ACETYL]-AMINO}-5-PHENYL-THIOPHENE- 2-CARBOXYLIC ACID] the IC50 was 5 to 20 µM. For `C=CCN(C(=O)Cc1ccc(C(F)(F)F)cc1)c1cc(-c2ccccc2)sc1C(=O)O` [Compound 352, 3-{ALLYL-[2-(4-TRIFLUOROMETHYL- PHENYL)-ACETYL]-AMINO}-5-PHENYL- THIOPHENE-2-CARBOXYLIC ACID], the IC50 was > 20 µM. In the case of `C=CCN(C(=O)Cc1c(Cl)cccc1Cl)c1cc(-c2ccccc2)sc1C(=O)O` [Compound 353, 3-{ALLYL-[2-(2,6-DICHLORO-PHENYL)- ACETYL]-AMINO}-5-PHENYL-THIOPHENE- 2-CARBOXYLIC ACID], the IC50 is reported as 5 to 20 µM. For `C=CCN(C(=O)Cc1cccc(C)c1)c1cc(-c2ccccc2)sc1C(=O)O` [Compound 354, 3-[ALLYL-(2-M-TOLYL-ACETYL)-AMINO]-5- PHENYL-THIOPHENE-2-CARBOXYLIC ACID], the IC50 was 5 to 20 µM. For `CC(=O)c1ccc(-c2cc(N(C(=O)c3ccc(Cl)cc3Cl)C(C)C)c(C(=O)O)s2)cc1` [Compound 355, 5-(4-ACETYL-PHENYL)-3-[)2,4-DICHLORO- BENZOYL)-ISOPROPYL-AMINO]- THIOPHENE-2-CARBOXYLIC ACID], the IC50 was < 5 µM. For `CC(C)N(C(=O)c1ccc(Cl)cc1Cl)c1cc(-c2ccc(F)cc2)sc1C(=O)O` [Compound 356, 3-[(2,4-DICHLORO-BENZOYL)- ISOPROPYL-AMINO]-5-(4-FLUORO- PHENYL)-THIOPHENE-2-CARBOXYLIC ACID], the IC50 was < 5 µM. In the case of `Cc1cccc(-c2cc(N(C(=O)c3ccc(Cl)cc3Cl)C(C)C)c(C(=O)O)s2)c1` [Compound 357, 3-[(2,4-DICHLORO-BENZOYL)- ISOPROPYL-AMINO]-5-M-TOLYL- THIOPHENE-2-CARBOXYLIC ACID], the IC50 is reported as < 5 µM. For `CC(=O)c1ccc(-c2cc(N(C(=O)c3ccc(Cl)cc3Cl)C(C)C)c(C(=O)O)s2)s1` [Compound 358, 5′-ACETYL-4-[(2,4-DICHLORO-BENZOYL)- ISOPROPYL-AMINO]-[2,2′]BITHIOPHENYL- 5-CARBOXYLIC ACID], the IC50 was < 5 µM. In the case of `CC(C)N(C(=O)c1ccc(Cl)cc1Cl)c1cc(-c2cccc(C(F)(F)F)c2)sc1C(=O)O` [Compound 359, 3-[(2,4-DICHLORO-BENZOYL)- ISOPROPYL-AMINO]-5-(3- TRIFLUOROMETHYL-PHENYL)- THIOPHENE-2-CARBOXYLIC ACID], the IC50 is reported as < 5 µM. In the case of `COc1ccc(-c2cc(NS(=O)(=O)c3ccc(C)cc3C)c(C(=O)O)s2)cc1` [Compound 361, 3-(2,4-DIMETHYL- BENZENESULFONYLAMINO)-5-(4- METHOXY-PHENYL)-THIOPHENE-2- CARBOXYLIC ACID], the IC50 is reported as < 5 µM. Work on `CC(C)N(C(=O)C1CCCCC1)c1cc(-c2ccccc2)sc1C(=O)O` [Compound 362, 3-(CYLCOHEXANECARBONYL- ISOPROPYL-AMINO)-5-PHENYL- THIOPHENE-2-CARBOXYLIC ACID] yielded an IC50 of 5 to 20 µM.
